The supplement of paper PMC4862054

Key:
Conditions in all cases: incubation time: 72 h
DU-4475 [1] = test: drug sensitivity score (DSS), CellTiter-Blue viability (DSS (AUC-based score)); higher = stronger viability inhibition; extreme values may be limits of the assay
Description: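 DSRT with the CellTiter-Blue (resazurin reduction) viability readout, fluorescence 560/590 nm, 72 h incubation. Plates were normalised to DMSO and benzethonium chloride controls. DSS is computed from the area under the fitted dose-response curve (5 or 9 concentrations).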

Hs578T = test: normalised viability (% of control), CellTiter-Blue; higher = more viable cells (about 100 = DMSO control)
Description: (§1)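 DSRT, CellTiter-Blue viability, 72 h incubation. Signal is normalised to DMSO and benzethonium chloride controls. Value is the normalised response at dose 3.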

HCC1937 = test: as above
Description: as §1

CAL-51 = test: as above
Description: as §1

HDQ-P1 = test: as above
Description: as §1

SK-BR-3 = test: as above
Description: as §1

CAL-85-1 = test: as above
Description: as §1

MFM-223 = test: as above
Description: as §1

HCC1599 = test: as above
Description: as §1

MDA-MB-453 = test: as above
Description: as §1

DU-4475 [2] = test: as above
Description: as §1

MDA-MB-231 = test: as above
Description: as §1

HCC1143 = test: as above
Description: as §1

BT-549 = test: as above
Description: as §1

CAL-148 = test: as above
Description: as §1

MDA-MB-436 = test: as above
Description: as §1

MDA-MB-468 = test: as above
Description: as §1

BT-474 = test: as above
Description: as §1

CAL-120 = test: as above
Description: as §1

| Compound | drug sensitivity score (DU-4475 [1]) | normalised viability (Hs578T; 10 nM) | normalised viability (HCC1937; 10 nM) | normalised viability (CAL-51; 1 nM) | normalised viability (HDQ-P1; 1 nM) | normalised viability (SK-BR-3; 10 nM) | normalised viability (CAL-85-1; 1 nM) | normalised viability (MFM-223; 10 nM) | normalised viability (HCC1599; 10 nM) | normalised viability (MDA-MB-453; 1 nM) | normalised viability (DU-4475 [2]; 1 nM) | normalised viability (MDA-MB-231; 10 nM) | normalised viability (HCC1143; 10 nM) | normalised viability (BT-549; 10 nM) | normalised viability (CAL-148; 1 nM) | normalised viability (MDA-MB-436; 10 nM) | normalised viability (MDA-MB-468; 10 nM) | normalised viability (BT-474; 10 nM) | normalised viability (CAL-120; 10 nM) | normalised viability (Hs578T; 100 nM) | normalised viability (HCC1937; 100 nM) | normalised viability (CAL-51; 10 nM) | normalised viability (HDQ-P1; 10 nM) | normalised viability (SK-BR-3; 100 nM) | normalised viability (CAL-85-1; 10 nM) | normalised viability (MFM-223; 100 nM) | normalised viability (HCC1599; 100 nM) | normalised viability (MDA-MB-453; 10 nM) | normalised viability (DU-4475 [2]; 10 nM) | normalised viability (MDA-MB-231; 100 nM) | normalised viability (HCC1143; 100 nM) | normalised viability (BT-549; 100 nM) | normalised viability (CAL-148; 10 nM) | normalised viability (MDA-MB-436; 100 nM) | normalised viability (MDA-MB-468; 100 nM) | normalised viability (BT-474; 100 nM) | normalised viability (CAL-120; 100 nM) |
| --- | --- | --- | --- | --- | --- | --- | --- | --- | --- | --- | --- | --- | --- | --- | --- | --- | --- | --- | --- | --- | --- | --- | --- | --- | --- | --- | --- | --- | --- | --- | --- | --- | --- | --- | --- | --- | --- |
| CCOc1cc2ncc(C#N)c(Nc3ccc(OCc4ccccn4)c(Cl)c3)c2cc1NC(=O)/C=C/CN(C)C [Neratinib] | 0 | 84.1% | 106% | 97.1% | 114% | 69.9% | 96.5% | 87.9% | 99.7% | 100% | 97.7% | 118% | 89.1% | 101% | 93.5% | 117% | 107% | 105% | 84.9% | – | – | – | – | – | – | – | – | – | – | – | – | – | – | – | – | – | – |
| COc1ccc(C2=N[C@@H](c3ccc(Cl)cc3)[C@@H](c3ccc(Cl)cc3)N2C(=O)N2CCNC(=O)C2)c(OC(C)C)c1 [Nutlin-3] | 3.53 | – | – | – | – | – | – | – | – | – | – | – | – | – | – | – | – | – | – | 101% | 106% | 94.3% | 113% | 72.8% | 99.1% | 83.2% | 118% | 98.7% | 95.4% | 88.3% | 84% | 105% | 95.6% | 97.9% | 95.8% | 109% | 84.8% |
| COC1=CC(c2cc3ccccc3[nH]2)=N/C1=C\c1[nH]c(C)cc1C [Obatoclax] | 2.24 | – | – | – | – | – | – | – | – | – | – | – | – | – | – | – | – | – | – | 73.4% | 45.9% | 109% | 90.4% | 43.3% | 89.4% | 71.7% | 93.4% | 80.6% | 87.7% | 47.7% | 78% | 62.9% | 87.7% | 58.7% | 69% | 70.7% | 25.9% |
| COC(=O)C[C@](O)(CCCC(C)(C)O)C(=O)O[C@@H]1C(OC)=C[C@]23CCCN2CCc2cc4c(cc2[C@H]13)OCO4 [Omacetaxine] | 38.1 | – | – | – | – | – | – | – | – | – | – | – | – | – | – | – | – | – | – | – | – | – | – | – | – | – | – | – | – | – | – | – | – | – | – | – | – |
| CC(=O)O[C@H]1C(=O)[C@@]2(C)[C@H]([C@H](OC(=O)c3ccccc3)[C@]3(O)C[C@H](OC(=O)[C@H](O)[C@@H](NC(=O)c4ccccc4)c4ccccc4)C(C)=C1C3(C)C)[C@]1(OC(C)=O)CO[C@@H]1C[C@@H]2O [Paclitaxel] | 18.3 | 26% | 36.4% | 91.8% | 60.8% | 25.9% | 103% | 55.8% | 104% | 107% | 97.6% | 35.7% | 54.6% | 31.9% | 103% | 52.2% | 52.1% | 54.3% | 36.9% | – | – | – | – | – | – | – | – | – | – | – | – | – | – | – | – | – | – |
| CC(C)(C)c1cc(NC(=O)Nc2ccc(-c3cn4c(n3)sc3cc(OCCN5CCOCC5)ccc34)cc2)no1 [Quizartinib] | 0 | 69.5% | 81.7% | 107% | 91.8% | 91% | 101% | 86% | 116% | 99% | 109% | 91.3% | 95.2% | 101% | 100% | 110% | 104% | 94.6% | 94.4% | – | – | – | – | – | – | – | – | – | – | – | – | – | – | – | – | – | – |
